Test systems include BT-549 breast; PC-3 prostate; DLD-1 colon; MCF7 breast; XF 498 CNS; SNB-78 CNS; DMS 273 small cell lung; MDA-N.
Common to all, as to test: inhibition of tumour cell growth, NCI panel, 48 h

Molecules are shown by their SMILES.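 The compound was tested at five concentrations on cells cultured in 96-well plates, with a 48-hour exposure period. GI50: concentration for 50% inhibition of growth. TGI: total growth inhibition.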

Consider `Cc1cc(C2CCCCC2)n(O)c(=O)c1`, for which the results for the GI50 with BT-549 breast, in the test with PC-3 prostate and with MCF7 breast were 6.19 µM, 3.02 µM and 3.01 µM, respectively. Besides, the TGI is over 100 µM with BT-549 breast; over 100 µM with PC-3 prostate; over 100 µM with DLD-1 colon; over 100 µM in the test with MCF7 breast; 35.8 µM in the test with XF 498 CNS.

As for `Cc1cccc(N2C(=O)C(Cl)=C(Cl)C2=O)c1`, the TGI in the test with SNB-78 CNS is over 100 µM; in the test on DLD-1 colon, over 60.7 µM; in the test with DMS 273 small cell lung it was over 100 µM; in the test on XF 498 CNS, over 100 µM.

Turning to `COC(=O)C(=O)C(C(=O)C(=O)Nc1ccc(C)cc1C)c1nc2ccccc2[nH]c1=O` (stereo not drawn), the TGI in the test on SNB-78 CNS, with DLD-1 colon and in the test on XF 498 CNS was over 100 µM in each case.

On to `C#CC[C@]12CC(=O)CC[C@H]1CC(=O)C2`, for which the TGI in the test on SNB-78 CNS, in the test with DLD-1 colon and in the test on DMS 273 small cell lung was over 100 µM each time.

Regarding `O=C(CC(=O)N1N=C(c2ccccc2)C(N=Nc2ccc(Cl)cc2)C1=O)Nc1ccccc1Cl` (stereo not drawn), the TGI was over 100 µM with SNB-78 CNS, over 100 µM in the test with DLD-1 colon, over 100 µM in the test with DMS 273 small cell lung and 89.7 µM with XF 498 CNS.

Turning to `CCC1(O)C(=O)OCc2c1cc1n(c2=O)Cc2cc3c(N)cccc3nc2-1` (stereo not drawn), the TGI was 2.57 µM in the test on MDA-N; over 51.7 µM in the test on SNB-78 CNS; 4.95 µM with BT-549 breast; over 100 µM in the test with PC-3 prostate; over 56.4 µM in the test with DLD-1 colon; 0.209 µM in the test on DMS 273 small cell lung. Besides, the TGI was over 39.7 µM in the test on MCF7 breast and 1.85 µM in the test with XF 498 CNS.

With `N#Cc1cnsc1`, the TGI in the test on SNB-78 CNS, with DLD-1 colon, in the test on DMS 273 small cell lung and in the test on XF 498 CNS was over 100 µM each time.

As for `CC(=O)c1ccc(NC(=O)/C(Cc2ccccn2)=N/NC(=O)C[N+](C)(C)C)cc1`, the TGI with SNB-78 CNS, with DLD-1 colon and with DMS 273 small cell lung was over 100 µM throughout.

On to `COc1cc(Cc2cc(OC)c(OC)c(OC)c2)ccc1O`, for which the TGI in the test on SNB-78 CNS, in the test with DLD-1 colon and in the test with XF 498 CNS was over 100 µM throughout.

For `COC(=O)C(=O)C(C(=O)C=C(C)C)C(=O)C(=O)Nc1ccc(Cl)cc1C` (stereo not drawn), the TGI with DLD-1 colon and with DMS 273 small cell lung was over 100 µM each time.

With `NC1C2(CCCCCC2)NC(=O)C12CCCCCC2` (stereo not drawn), the TGI in the test on SNB-78 CNS, in the test on DLD-1 colon, in the test on DMS 273 small cell lung and in the test with XF 498 CNS was over 100 µM throughout.

`CC(C)=CC(=O)N1CCN(C(=O)C=C(C)C)CC1`: the TGI with SNB-78 CNS, in the test on DLD-1 colon, with DMS 273 small cell lung and in the test on XF 498 CNS was over 100 µM throughout.

For `O=C1C2=C(CC3C(C2)C3(Br)Br)C(=O)C2=C1CC1C(C2)C1(Br)Br` (stereo not drawn), the TGI in the test with SNB-78 CNS, in the test with DLD-1 colon, in the test with DMS 273 small cell lung and in the test on XF 498 CNS was over 100 µM in each case.

Consider `N#CCCN(c1ccc(/C=C2\N=C(c3ccc(Cl)cc3)OC2=O)cc1)S(=O)(=O)c1ccccc1`, for which the TGI with DLD-1 colon, in the test on DMS 273 small cell lung and in the test with XF 498 CNS was over 100 µM each time.

Regarding `Nc1c(-c2ccc(Br)cc2)[n+]([O-])c2ccccc2[n+]1[O-]`, the TGI in the test with SNB-78 CNS, in the test with DLD-1 colon and in the test on DMS 273 small cell lung was over 100 µM each time.

As to `CCOC(=O)NC(=O)c1cn(CCCOC(=O)NCCCCCCNC(=O)OCCCn2c(=O)c(C(=O)NC(=O)OCC)cn(C)c2=O)c(=O)n(C)c1=O`, the TGI in the test with DLD-1 colon and in the test on DMS 273 small cell lung was over 100 µM each time.

As for `N#CCCN(CCC#N)c1ccc(/C=C2\N=C(CN3C(=O)c4ccccc4C3=O)OC2=O)cc1`, the TGI in the test on DMS 273 small cell lung and in the test with XF 498 CNS was over 100 µM each time.

Regarding `Cc1ccc(N=NC(C(=O)c2ccccc2)C(=O)c2ccccc2)cc1`, the figures for the TGI in the test on DLD-1 colon, in the test with DMS 273 small cell lung and with XF 498 CNS were 76 µM, 58.8 µM and 54.6 µM, respectively.

`CSc1nc(NC2OC(COC(C)=O)C(OC(C)=O)C(OC(C)=O)C2OC(C)=O)c2c(OC(C)=O)c(C)c(=O)oc2n1` (stereo not drawn): the TGI with SNB-78 CNS, in the test with DLD-1 colon and in the test on XF 498 CNS was over 100 µM throughout.

Take `CNC=O.[O]=[Ge].[O]=[Ge].[O]=[Ge].[O]=[Ge][OH].[O]=[Ge][OH]`: the TGI with SNB-78 CNS, with DLD-1 colon, in the test with DMS 273 small cell lung and with XF 498 CNS was over 100 µM throughout.

Consider `CCC(C)(O)c1cn(-c2cccc(S(=O)(=O)O)c2)nn1` (stereo not drawn), for which the TGI with SNB-78 CNS, in the test with DLD-1 colon, in the test on DMS 273 small cell lung and with XF 498 CNS was over 100 µM throughout.

Take `O=S(O)CCCCSSCCCCSSCCCCS(=O)O`: the TGI with SNB-78 CNS was 70.5 µM; in the test on DLD-1 colon, over 100 µM; in the test on DMS 273 small cell lung it was over 100 µM; with XF 498 CNS it was 21.4 µM.

Consider `CC(C)=[CH][Sb]([Br])([CH]=C(C)C)([CH]=C(C)C)[CH]=C(C)C`, for which the GI50 in the test on DLD-1 colon was 37.3 µM; with DMS 273 small cell lung, 5.98 µM; in the test on XF 498 CNS it was 16.4 µM. Besides, the TGI in the test with DLD-1 colon was over 100 µM; in the test with DMS 273 small cell lung it was 56.8 µM; with XF 498 CNS, over 100 µM.

Consider `O=C(/C=C/c1ccccc1Cl)c1ccccc1Cl`, for which the TGI in the test with SNB-78 CNS came out at 69.2 µM; in the test with DLD-1 colon it was 33.4 µM; in the test on DMS 273 small cell lung, 31.1 µM.

Consider `O=C(NC1CCCCCC1)C1C(=O)N(C2CCCCCC2)C(=O)/C1=N\O` (stereo not drawn), for which the TGI with SNB-78 CNS and with DLD-1 colon was over 100 µM each time.

With `CC(=O)SCCC1c2[nH]c3ccccc3c2CCN1O` (stereo not drawn), the TGI in the test on DLD-1 colon and with DMS 273 small cell lung was over 100 µM each time.

On to `Cc1cccc(C(C)(C)C)c1NC(=O)CCc1n[nH]c(=S)o1`, for which the TGI with SNB-78 CNS, in the test with DLD-1 colon and with DMS 273 small cell lung was over 100 µM in each case.

`CCc1cccc(C)c1NC(C)=O`: the TGI in the test on SNB-78 CNS, in the test on DLD-1 colon, in the test with DMS 273 small cell lung and in the test with XF 498 CNS was over 100 µM each time.

For `CCN(CC)C(=O)C/C(C)=N/NC(=O)c1ccncc1`, the TGI in the test with SNB-78 CNS, with DLD-1 colon, with DMS 273 small cell lung and with XF 498 CNS was over 100 µM each time.

Regarding `COC(=O)CSc1n[nH]c(-c2ccc(O)c([N+](=O)[O-])c2)n1`, the TGI with DLD-1 colon, with DMS 273 small cell lung and with XF 498 CNS was over 100 µM each time.

Turning to `COc1ccc(C(=O)O)c(Cc2cccc3ccccc23)c1`, the TGI in the test with DLD-1 colon and with DMS 273 small cell lung was over 100 µM in each case.

On to `CC#CC(=O)Nc1ccccc1CC(c1c[nH]c2ccccc12)c1c[nH]c2ccccc12`, for which the results for the TGI in the test with SNB-78 CNS, in the test on DLD-1 colon and in the test on DMS 273 small cell lung were 46.1 µM, 36.3 µM and 32.7 µM, respectively.

As to `Cc1ccc(C(=O)/C=C/c2ccccc2O)c(C)c1`, the TGI in the test on SNB-78 CNS, with DLD-1 colon and in the test with DMS 273 small cell lung was over 100 µM throughout.

Turning to `CC(=O)NC(CCCN)C(=O)NCc1ccccc1` (stereo not drawn), the TGI with SNB-78 CNS, in the test on DLD-1 colon, with DMS 273 small cell lung and in the test on XF 498 CNS was over 100 µM each time.

As for `NCCCNCCSSCCCCS(=O)O`, the TGI in the test with SNB-78 CNS was over 100 µM; in the test on DLD-1 colon, over 100 µM; in the test with DMS 273 small cell lung it was over 100 µM; in the test on XF 498 CNS, 37.4 µM.

On to `COC(=O)C1=C(c2ccc3c(c2)OCO3)O[C@H](c2ccc3c(c2)OCO3)[C@H]1COC(C)=O`, for which the TGI in the test with SNB-78 CNS, in the test with DLD-1 colon, in the test on DMS 273 small cell lung and in the test on XF 498 CNS was over 100 µM throughout.

With `CCCCCCCCCCCCCCCCOP(=O)(O)Oc1ccc(/C=C\c2ccc(OP(=O)(O)OCCCCCCCCCCCCCCCC)cc2)cc1`, the TGI in the test with SNB-78 CNS is 91.9 µM; in the test with DLD-1 colon, over 100 µM; in the test with DMS 273 small cell lung, 62.4 µM.

As to `COc1cc(C2c3cc4c(cc3[C@H](OCCN(C)C)[C@@H]3COC(=O)C23)OCO4)cc(OC)c1O` (stereo partly drawn), the TGI is 30 µM in the test on MDA-N; over 93.2 µM in the test with SNB-78 CNS; 2.32 µM with BT-549 breast; 81.1 µM in the test with PC-3 prostate; 3.96 µM with DLD-1 colon; 1.31 µM in the test with DMS 273 small cell lung. For the same compound, the TGI was over 100 µM with MCF7 breast and 1.88 µM in the test with XF 498 CNS.

On to `CCOC(=O)[C@H]1Nc2ccc(C)cc2C2c3ccccc3CC21` (stereo partly drawn), for which the TGI in the test with SNB-78 CNS, with DLD-1 colon and with DMS 273 small cell lung was over 100 µM in each case.

The values are drawn from PubChem BioAssay (NCI).
